Laboratory results reported in patent US6476034B2, “Antiviral azaindole derivatives” (priority 2000, dated 2002).

Test system: single-round infectious HIV-1 reporter virus
Assay: microbe, parasite or virus in culture
Assay type: cell-based
Details: for EC50: Human immunodeficiency virus 1, HeLa-CD4/CCR5; for inhibition at 10 µM: Human immunodeficiency virus 1, HeLa-CD4/CCR5, 72 h, read-out: Average % inhibition at or <10 μM; for Average % inhibition at or <10 μM: HeLa CD4 CCR5 cells, luciferase expression 3 days (72 hours) after infection, compounds tested below 10 μM: % inhibition at 10 μM extrapolated with XLfit, mean of at least two experiments

C[C@@H]1CN(C(=O)c2ccccc2)CCN1C(=O)C(=O)c1c[nH]c2nc(C#N)ccc12 [Compound 12a, (R)-N-(benzoyl)-3-methyl-N′-[(6-cyano-7-azaindol-3-yl)-oxoacetyl]-piperazine]
EC50: < 1000 nM
inhibition at 10 µM: > 99%

CC(=O)Oc1ccc2c(C(=O)C(=O)N3CCN(C(=O)c4ccccc4)C[C@H]3C)cn(C(C)=O)c2n1 [Compound 13a, (R)-N-(benzoyl)-3-methyl-N′-[(1-acetyl-6-acetoxy-7-azaindol-3-yl)-oxoacetyl]-piperazine]
EC50: < 1000 nM
inhibition at 10 µM: > 99%

C[C@@H]1CN(C(=O)c2ccccc2)CCN1C(=O)C(=O)c1c[nH]c2nc(O)ccc12 [Compound 14a, (R)-N-(benzoyl)-3-methyl-N′-[(6-hydroxyl-7-azaindol-3-yl)-oxoacetyl]-piperazine]
inhibition at 10 µM: > 99%

C[C@@H]1CN(C(=O)c2ccccc2)CCN1C(=O)C(=O)c1c[nH]c2c1c([N+](=O)[O-])cc[n+]2[O-] [Compound 15a, (R)-N-(benzoyl)-3-methyl-N′-[(4-nitro-7-oxide-7-azaindol-3-yl)-oxoacetyl]-piperazine]
Average % inhibition at or <10 μM: 70%

COc1cc[n+]([O-])c2[nH]cc(C(=O)C(=O)N3CCN(C(=O)c4ccccc4)C[C@H]3C)c12 [Compound 16a, (R)-N-(benzoyl)-3-methyl-N′-[(4-methoxy-7-oxide-7-azaindol-3-yl)-oxoacetyl]-piperazine]
Average % inhibition at or <10 μM: >99%

CCOc1cc[n+]([O-])c2[nH]cc(C(=O)C(=O)N3CCN(C(=O)c4ccccc4)C[C@H]3C)c12 [Compound 16d, (R)-N-(benzoyl)-3-methyl-N′-[(4-ethoxy-7-oxide-7-azaindol-3-yl)-oxoacetyl]-piperazine]
Average % inhibition at or <10 μM: 88%

CCCSc1cc[n+]([O-])c2[nH]cc(C(=O)C(=O)N3CCN(C(=O)c4ccccc4)C[C@H]3C)c12 [Compound 16e, (R)-N-(benzoyl)-3-methyl-N′-[(4-propylthio-7-oxide-7-azaindol-3-yl)-oxoacetyl]-piperazine]
Average % inhibition at or <10 μM: 50%

COc1ccnc2[nH]cc(C(=O)C(=O)N3CCN(C(=O)c4ccccc4)C[C@H]3C)c12 [Compound 17a, (R)-N-(benzoyl)-3-methyl-N′-[(4-methoxy-7-azaindol-3-yl)-oxoacetyl]-piperazine]
EC50: < 1000 nM
inhibition at 10 µM: > 99%

C[C@@H]1CN(C(=O)c2ccccc2)CCN1C(=O)C(=O)c1c[nH]c2nccc(OCC(F)(F)F)c12 [Compound 17b, (R)-N-(benzoyl)-3-methyl-N′-[(4-(2,2,2-trifluoroethoxy)-7-azaindol-3-yl)-oxoacetyl]-piperazine]
EC50: < 1000 nM
inhibition at 10 µM: 99%

CC(C)Oc1ccnc2[nH]cc(C(=O)C(=O)N3CCN(C(=O)c4ccccc4)C[C@H]3C)c12 [Compound 17c, (R)-N-(benzoyl)-3-methyl-N′-[(4-(1-methylethoxy)-7-azaindol-3-yl)-oxoacetyl]-piperazine]
EC50: < 1000 nM
inhibition at 10 µM: > 99%

COc1ccnc2[nH]cc(C(=O)C(=O)N3CCN(C(=O)c4ccccc4)C[C@@H]3C)c12 [Compound 17d, (S)-N-(benzoyl)-3-methyl-N′-[(4-methoxy-7-azaindol-3-yl)-oxoacetyl]-piperazine]
EC50: < 1000 nM
inhibition at 10 µM: 98%

COc1ccnc2[nH]cc(C(=O)C(=O)N3CCN(C(=O)c4ccccc4)CC3C)c12 (centres unmarked) [Compound 17e, N-(benzoyl)-3-methyl-N′-[(4-methoxy-7-azaindol-3-yl)-oxoacetyl]-piperazine]
EC50: < 1000 nM
inhibition at 10 µM: 94%

CCCSc1ccc2c(C(=O)C(=O)N3CCN(C(=O)c4ccccc4)C[C@H]3C)c[nH]c2n1 [Compound 17f, (R)-N-(benzoyl)-3-methyl-N′-[(6-propylthiol-7-azaindol-3-yl)-oxoacetyl]-piperazine]
Average % inhibition at or <10 μM: >99%

CNc1ccnc2[nH]cc(C(=O)C(=O)N3CCN(C(=O)c4ccccc4)C[C@H]3C)c12 [Compound 17h, (R)-N-(benzoyl)-3-methyl-N′-[(4-methylamino-7-azaindol-3-yl)-oxoacetyl]-piperazine]
EC50: > 500 nM

C[C@@H]1CN(C(=O)c2ccccc2)CCN1C(=O)C(=O)c1c[nH]c2nccc([N+](=O)[O-])c12 [Compound 18a, (R)-N-(benzoyl)-3-methyl-N′-[(4-nitro-7-azaindol-3-yl)-oxoacetyl]-piperazine]
EC50: 1000 to 5000 nM
inhibition at 10 µM: 80%

C[C@@H]1CN(C(=O)c2ccccc2)CCN1C(=O)C(=O)c1c[nH]c2nccc(NO)c12 [Compound 19a, (R)-N-(benzoyl)-3-methyl-N′-[(4-hydroxylamino-7-azaindol-3-yl)-oxoacetyl]-piperazine]
EC50: < 1000 nM
inhibition at 10 µM: 98%

C[C@@H]1CN(C(=O)c2ccccc2)CCN1C(=O)C(=O)c1c[nH]c2nccc(N)c12 [Compound 20a, (R)-N-(benzoyl)-3-methyl-N′-[(4-amino-7-azaindol-3-yl)-oxoacetyl]-piperazine]
EC50: < 1000 nM
inhibition at 10 µM: 95%

C[C@@H]1CN(C(=O)c2ccccc2)CCN1C(=O)C(=O)c1cn(C)c2ncccc12 [Compound 21a, (R)-N-(benzoyl)-3-methyl-N′-[(1-methyl-7-azaindol-3-yl)-oxoacetyl]-piperazine]
EC50: < 1000 nM
inhibition at 10 µM: 70%

C=CCn1cc(C(=O)C(=O)N2CCN(C(=O)c3ccccc3)C[C@H]2C)c2cccnc21 [Compound 21b, (R)-N-(benzoyl)-3-methyl-N′-[(1-allyl-7-azaindol-3-yl)-oxoacetyl]-piperazine]
EC50: < 1000 nM
inhibition at 10 µM: 95%

C[C@@H]1CN(C(=O)c2ccccc2)CCN1C(=O)C(=O)c1c[nH]c2c(N(C)C)nccc12 [Compound 27c, (R)-N-(benzoyl)-3-methyl-N′-[(7-dimethylamino-6-azaindol-3-yl)-oxoacetyl]-piperazine]
EC50: < 1000 nM
inhibition at 10 µM: 63%

COc1cncc2[nH]cc(C(=O)C(=O)N3CCN(C(=O)c4ccccc4)CC3)c12 [Compound 39, N-(benzoyl)-N′-[(4-methoxy-6-azaindol-3-yl)-oxoacetyl]-piperazine]
EC50: < 1000 nM

(R)-N-(benzoyl)-3-methyl-N′-[(4 or 6)-5phenyl-7-azaindol-3-yl)-oxoacetyl]-piperazine [Compound 11b]
Average % inhibition at or <10 μM: 85%

(R)-N-(benzoyl)-3-methyl-N′-[(4 or 6)-methyl-7-azaindol-3-yl)-oxoacetyl]-piperazine [Compound 11a]
Average % inhibition at or <10 μM: 99%

(R)-N-(benzoyl)-3-methyl-N′-[(4 or 6)-vinyl-7-azaindol-3-yl)-oxoacetyl]-piperazine [Compound 11c]
Average % inhibition at or <10 μM: 48%

N-(pyridin-2-yl)-N′-[(7-azaindol-3-yl)-oxoacetyl]-piperazine [Compound 5j]
Average % inhibition at or <10 μM: 90%
